Where “and” joins values, the source holds several entries; their conditions need not be identical. Equal values may be shown once.
Legend:
[1] = In vivo biodistribution of [^123I]-CLINME; set-up: species or system Sprague-Dawley (SD) rats; settings: for Biodistribution, Adrenals / Biodistribution, Blood / Biodistribution, Heart / Biodistribution, Kidney / Biodistribution, Liver / Biodistribution, Lungs / Biodistribution, Olfactory bulbs / Biodistribution, Spleen / Biodistribution, Thyroid / Biodistribution, Brain: SD male rats, i.v.; for Biodistribution, Brain: remainder of the brain
Method: No carrier added [^123I]-CLINME (0.7 MBq, 10 pmoles) dissolved in 0.9% saline (0.1 mL) was administered to 8–10-week-old male Sprague-Dawley (SD) rats (n = 4–6) via tail vein injection in a volume of 0.1 mL. At 5, 15, and 30 min and 1, 3, and 6 h after injection (p.i.) of the [^123I]-CLINME, the rats were sacrificed by CO2 administration followed by cervical fracture. […] Samples of organs and tissues were weighed and the radioactivity was measured using an automated γ-counter. The percent of injected dose (%ID) was calculated by comparison to a diluted standard solution derived from the initial injected sample. Radioactivity concentrations were expressed as percent of injected dose per gram of wet tissue (% ID/g).

[2] = target: T1, TSPO (Rattus norvegicus, UniProt P16257); test: SPECT imaging of unilateral excitotoxic (AMPA) striatum lesion; assay type: in vivo, SD rats; set-up: from tissue; host or cells: male Sprague-Dawley rats: peripheral organs and brain in vivo; AMPA-lesioned striatum; brain sections; settings: AMPA lesion rat model
Method: Lesioning was performed by stereotaxically injecting 7.5 nmol α-amino-3-hydroxy-5-methylisoxazole-4-propionic acid (AMPA) unilaterally into the striatum. Male SD rats (317 ± 56 g) were anaesthetised with inhaled isoflurane in O2 (5% induction, ~2% maintenance thereafter) and positioned in a stereotaxic frame (Stoelting Co., USA). A 1.5 cm incision was made in the scalp to reveal the skull surface and a burr hole was drilled over the injection site. […] Following the injection, the needle was left in situ for a further 5 min to allow the fluid to disperse. After the needle was withdrawn, the incision was sutured and cleansed. Animals were given a week to recover prior to imaging. Analgesia was provided by subcutaneous administration of 0.05 mg/Kg buprenorphine.
Two hours prior to [^123I]-CLINME administration, thyroid blocking was performed with an intraperitoneal injection of 2 mg/Kg potassium iodide. [^123I]-CLINME (74–148 MBq in 0.1 mL of 0.9% saline, S.A. > 80 GBq/μmol) was injected via the tail vein. […]
SPECT volumes were reconstructed with an Ordered Subset Expectation Maximisation iterative reconstruction algorithm using 3 iterations and 8 subsets. […] At each of the time points p.i., the ratio of the mean activity in the lesion VOI compared to the contralateral control VOI was determined. […]

[3] = Metabolite studies (radio-TLC of tissue and plasma extracts); assay type: in vivo, SD rats; settings: rats
Method: Groups of male SD rats were injected with [^123I]-CLINME (7.4 MBq in 0.1 mL of 0.9% saline) and sacrificed at 15, 60, and 180 min p.i. Adrenals, kidney, heart, and brain were quickly excised.
Tissue fractions (200 mg) were treated with acetonitrile (2 mL) and homogenised, and the mixture was centrifuged at 2,000 rpm. The supernatant was removed and the pellet was treated for a second time, as above and the combined supernatants concentrated to 50 μL. Plasma (0.2 mL) separated from blood was extracted with acetonitrile and concentrated. The concentrated extracts were applied onto silica gel C18 plates with a preconcentration zone (Merck, Darmstadt, Germany) and developed with ethyl acetate. The radioactivity distribution was measured using a static radiochromatogram analyser (Berthold Co.).

[4] = target: T1, TSPO; settings: competing drug 1 mg/Kg i.v. 5 min prior to tracer, rats, 30 min p.i.
Method: The saturation effect of [^123I]-CLINME uptake was studied in competition experiments by injecting CLINME (1 mg/Kg), 5 min prior to [^123I]-CLINME (0.7 MBq, 10 pmoles in 0.1 mL of 0.9% saline), via the tail vein, to 8–10-week-old male SD rats.
The drugs were dissolved in dimethyl sulfoxide/saline (1 : 5) and injected intravenously 5 min prior to [^123I]-CLINME. Groups of rats (n = 3-4) were sacrificed by CO2 administration followed by cervical fracture 30 min after administration of [^123I]-CLINME and peripheral organs (liver, spleen, lung, heart, kidney, and adrenals), blood, olfactory bulbs, and the remainder of the brain were removed. The radioactivity concentrations were calculated as described previously. Results were analysed by one-way analysis of variance (ANOVA) followed by Tukey's post hoc test for comparing the tissue radioactivity concentrations in the treated animals (n = 3-4) and in the controls (n = 6). The criterion for significance was P < 0.05.

[5] = target: T1, TSPO; test: In vitro autoradiography with [^125I]-CLINME on lesioned brain tissue; assay type: binding, SD rats; set-up: from tissue; host or cells: male Sprague-Dawley rats: peripheral organs and brain in vivo; AMPA-lesioned striatum; brain sections; settings: autoradiography, 16 nM [^125I]-CLINME

In the case of CCN(C)C(=O)Cc1c(-c2ccc([123I])cc2)nc2ccc(Cl)cn12 [[^123I]-CLINME], the “Biodistribution, Adrenals” value ([1]; 5 min p.i.) is reported as 2.89 ± 0.48 %ID/g, the “Biodistribution, Blood” value ([1]; 5 min p.i.) is reported as 0.18 ± 0.02 %ID/g and the “Biodistribution, Heart” value ([1]; 5 min p.i.) is reported as 3.28 ± 0.30 %ID/g. For the same molecule, the “Biodistribution, Kidney” value ([1]; 5 min p.i.) was 1.82 ± 0.20 %ID/g, the “Biodistribution, Liver” value ([1]; 5 min p.i.) was 0.70 ± 0.10 %ID/g and the “Biodistribution, Lungs” value ([1]; 5 min p.i.) was 7.88 ± 0.62 %ID/g. For the same molecule, the “Biodistribution, Olfactory bulbs” value ([1]; 5 min p.i.) was 0.38 ± 0.03 %ID/g, the “Biodistribution, Spleen” value ([1]; 5 min p.i.) was 2.00 ± 0.55 %ID/g and the “Biodistribution, Thyroid” value ([1]; 5 min p.i.) was 4.62 ± 2.17 %ID/g. The “Biodistribution, Brain” value ([1]; 5 min p.i.) was 0.20 ± 0.02 %ID/g, the “Biodistribution, Adrenals” value ([1]; 15 min p.i.) was 4.71 ± 0.26 %ID/g and the “Biodistribution, Blood” value ([1]; 15 min p.i.) was 0.09 ± 0.01 %ID/g. The “Biodistribution, Heart” value ([1]; 15 min p.i.) was 3.53 ± 0.23 %ID/g, the “Biodistribution, Kidney” value ([1]; 15 min p.i.) was 1.75 ± 0.07 %ID/g and the “Biodistribution, Liver” value ([1]; 15 min p.i.) was 0.68 ± 0.07 %ID/g. The “Biodistribution, Lungs” value ([1]; 15 min p.i.) was 3.53 ± 0.44 %ID/g, the “Biodistribution, Olfactory bulbs” value ([1]; 15 min p.i.) was 0.28 ± 0.04 %ID/g and the “Biodistribution, Spleen” value ([1]; 15 min p.i.) was 2.65 ± 0.40 %ID/g. For the same molecule, the “Biodistribution, Thyroid” value ([1]; 15 min p.i.) was 5.62 ± 1.24 %ID/g, the “Biodistribution, Brain” value ([1]; 15 min p.i.) was 0.10 ± 0.01 %ID/g and the “Biodistribution, Adrenals” value ([1]; 30 min p.i.) was 7.55 ± 1.38 %ID/g. For the same molecule, the “Biodistribution, Blood” value ([1]; 30 min p.i.) was 0.08 ± 0.01 %ID/g, the “Biodistribution, Heart” value ([1]; 30 min p.i.) was 3.32 ± 0.31 %ID/g and the “Biodistribution, Kidney” value ([1]; 30 min p.i.) was 1.78 ± 0.18 %ID/g. For the same molecule, the “Biodistribution, Liver” value ([1]; 30 min p.i.) was 0.51 ± 0.07 %ID/g, the “Biodistribution, Lungs” value ([1]; 30 min p.i.) was 2.45 ± 0.30 %ID/g and the “Biodistribution, Olfactory bulbs” value ([1]; 30 min p.i.) was 0.34 ± 0.01 %ID/g. For the same molecule, the “Biodistribution, Spleen” value ([1]; 30 min p.i.) was 2.21 ± 0.15 %ID/g, the “Biodistribution, Thyroid” value ([1]; 30 min p.i.) was 7.37 ± 2.14 %ID/g and the “Biodistribution, Brain” value ([1]; 30 min p.i.) was 0.08 ± 0.00 %ID/g. For the same molecule, the “Biodistribution, Adrenals” value ([1]; 1 hour p.i.) was 6.77 ± 0.54 %ID/g, the “Biodistribution, Blood” value ([1]; 1 hour p.i.) was 0.06 ± 0.00 %ID/g and the “Biodistribution, Kidney” value ([1]; 1 hour p.i.) was 1.16 ± 0.18 %ID/g. For the same molecule, the “Biodistribution, Liver” value ([1]; 1 hour p.i.) was 0.42 ± 0.07 %ID/g, the “Biodistribution, Lungs” value ([1]; 1 hour p.i.) was 1.68 ± 0.10 %ID/g and the “Biodistribution, Olfactory bulbs” value ([1]; 1 hour p.i.) was 0.26 ± 0.05 %ID/g. For the same molecule, the “Biodistribution, Spleen” value ([1]; 1 hour p.i.) was 1.76 ± 0.12 %ID/g, the “Biodistribution, Thyroid” value ([1]; 1 hour p.i.) was 6.46 ± 2.26 %ID/g and the “Biodistribution, Brain” value ([1]; 1 hour p.i.) was 0.06 ± 0.01 %ID/g. The “Biodistribution, Adrenals” value ([1]; 3 hours p.i.) was 6.65 ± 0.56 %ID/g, the “Biodistribution, Blood” value ([1]; 3 hours p.i.) was 0.04 ± 0.00 %ID/g and the “Biodistribution, Heart” value ([1]; 3 hours p.i.) was 1.28 ± 0.13 %ID/g. The “Biodistribution, Kidney” value ([1]; 3 hours p.i.) was 0.70 ± 0.05 %ID/g, the “Biodistribution, Liver” value ([1]; 3 hours p.i.) was 0.23 ± 0.01 %ID/g and the “Biodistribution, Lungs” value ([1]; 3 hours p.i.) was 0.95 ± 0.12 %ID/g. The “Biodistribution, Olfactory bulbs” value ([1]; 3 hours p.i.) was 0.25 ± 0.01 %ID/g, the “Biodistribution, Spleen” value ([1]; 3 hours p.i.) was 1.02 ± 0.14 %ID/g and the “Biodistribution, Thyroid” value ([1]; 3 hours p.i.) was 3.41 ± 1.10 %ID/g. The “Biodistribution, Brain” value ([1]; 3 hours p.i.) was 0.03 ± 0.00 %ID/g, the “Biodistribution, Adrenals” value ([1]; 6 hours p.i.) was 8.34 ± 0.71 %ID/g and the “Biodistribution, Blood” value ([1]; 6 hours p.i.) was 0.03 ± 0.00 %ID/g. The “Biodistribution, Heart” value ([1]; 6 hours p.i.) was 0.72 ± 0.14 %ID/g, the “Biodistribution, Kidney” value ([1]; 6 hours p.i.) was 0.51 ± 0.09 %ID/g and the “Biodistribution, Liver” value ([1]; 6 hours p.i.) was 0.21 ± 0.05 %ID/g. The “Biodistribution, Lungs” value ([1]; 6 hours p.i.) was 0.68 ± 0.08 %ID/g, the “Biodistribution, Olfactory bulbs” value ([1]; 6 hours p.i.) was 0.17 ± 0.05 %ID/g and the “Biodistribution, Spleen” value ([1]; 6 hours p.i.) was 0.67 ± 0.09 %ID/g. The “Biodistribution, Thyroid” value ([1]; 6 hours p.i.) was 4.11 ± 1.15 %ID/g, the “Biodistribution, Brain” value ([1]; 6 hours p.i.) was 0.02 ± 0.00 %ID/g and the “ratio of uptake olfactory bulbs to blood” value ([1]; rats) was 6. The “plateau of activity in the adrenals” value ([1]; rats, after 30 min to 6 h p.i.) was “≈ 7.5 % ID/g”, the “peak activity in heart” value ([1]; rats, at 5 or 15 min p.i.) was 3.5 % ID/g and the “peak activity in kidney” value ([1]; rats, at 5 or 15 min p.i.) was 1.8 % ID/g. For the same molecule, the “peak activity in liver” value ([1]; rats, at 5 or 15 min p.i.) was 0.7 % ID/g, the “peak activity in lung” value ([1]; rats, at 5 or 15 min p.i.) was 7.9 % ID/g and the “peak activity in spleen” value ([1]; rats, at 5 or 15 min p.i.) was 2.7 % ID/g. For the same molecule, the “ratio of uptake olfactory bulbs versus remainder of the brain” value ([1]; rats, at 5 min) was 2, the “uptake in the thyroid” value ([1]; rats, at 3 h, constant till 6 h) was 4% and the “activity in liver, spleen, kidney, heart, and lung” value ([1]; rats, at 6 h) was “less than 0.7 % ID/g”. The “ratio of uptake olfactory bulbs versus remainder of the brain” value ([1]; rats, at 6 h) was 8, the “uptake in the thyroid” value ([1]; rats, increase from 5 min to 1 h) was 4–7% and the concentration in blood ([1]; rats, throughout the time of measurement) was < 0.18 % ID/g. The “mean ratio ± SD (ipsilateral : contralateral) striatum uptake, SPECT” value ([2]; 60 min p.i.) was 2.2 and 2.18 ± 0.89, the “mean ratio ± SD (ipsilateral : contralateral) striatum uptake, SPECT” value ([2]; 120 min p.i.) was 1.86 ± 0.51 and the “unchanged radiotracer in brain tissue” value [3] was “more than 95%”. For the same molecule, the “unchanged tracer in extracted activity, plasma” value (“unchanged tracer” below) ([3]; 15 min p.i.) was 15%, the “unchanged tracer” value ([3]; 1 h p.i.) was 5% and the “unchanged tracer” value ([3]; 3 h p.i.) was 2%. The “unchanged [^123I]-CLINME in extractable radioactivity, adrenals, kidney, and heart” value ([3]; constant over the three hours studied) was “more than 95%”.

For Ro 5-4864, the “reduction of uptake of [^123I]-CLINME in the blood” value [4] was “not significant”, the “decrease of [^123I]-CLINME uptake in the heart” value ([4]; vs controls) was 77% and the “decrease of [^123I]-CLINME uptake in the kidney” value ([4]; vs controls) was 68%. The “decrease of [^123I]-CLINME uptake in the lungs” value ([4]; vs controls) was 62%, the “decrease of [^123I]-CLINME uptake in the olfactory bulbs” value ([4]; vs controls) was “nonsignificant reduction” and the “decrease of [^123I]-CLINME uptake in the remainder of the brain” value ([4]; vs controls) was 23%. The “increase of [^123I]-CLINME concentration in the adrenals” value ([4]; vs controls) was 73%.

For CCN(C)C(=O)Cc1c(-c2ccc([125I])cc2)nc2ccc(Cl)cn12 [[^125I]-CLINME], the “radioligand binding in the lesioned striatum compared to the contralateral one” value [5] was “significantly increased”.
